How the values were obtained:
[1] = molecular target: T1, human EP3 receptor (Homo sapiens, UniProt P43115); assay: Binding ability to human EP3 receptor ([3H]PGE2 displacement); conditions: membranes from cells stably transfected with human EP receptor cDNA; [3H]PGE2 2.5 nM; Cheng-Prusoff from IC50; read-out: pKi EP3 (converted)
T1 construct: expressed in transfected cells
T1 sequence (P43115 1-390): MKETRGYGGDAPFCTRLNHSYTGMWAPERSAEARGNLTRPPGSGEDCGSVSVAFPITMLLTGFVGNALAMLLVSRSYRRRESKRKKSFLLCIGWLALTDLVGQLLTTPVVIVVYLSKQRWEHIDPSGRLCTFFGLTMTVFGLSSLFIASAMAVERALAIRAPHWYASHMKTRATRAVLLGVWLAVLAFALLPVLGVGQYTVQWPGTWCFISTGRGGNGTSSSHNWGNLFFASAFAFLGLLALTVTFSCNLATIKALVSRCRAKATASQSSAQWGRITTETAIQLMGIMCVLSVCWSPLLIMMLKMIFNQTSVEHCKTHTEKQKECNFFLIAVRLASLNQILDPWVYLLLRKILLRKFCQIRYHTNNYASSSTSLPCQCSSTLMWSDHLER
Outline: (§1)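 Membranes from cells stably transfected with human EP receptor cDNA were incubated to equilibrium with [3H]PGE2 and compound (0.1 to 10 000 nM). Non-specific binding was defined with 10 uM PGE2; bound radioligand was separated by vacuum filtration and counted by scintillation.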

[2] = molecular target: T2, human EP4 receptor (Homo sapiens, UniProt P35408); assay: Binding ability to human EP4 receptor ([3H]PGE2 displacement); conditions: read-out: pKi EP4 (converted)
T2 construct: expressed in transfected cells
T2 sequence (P35408 whole entry): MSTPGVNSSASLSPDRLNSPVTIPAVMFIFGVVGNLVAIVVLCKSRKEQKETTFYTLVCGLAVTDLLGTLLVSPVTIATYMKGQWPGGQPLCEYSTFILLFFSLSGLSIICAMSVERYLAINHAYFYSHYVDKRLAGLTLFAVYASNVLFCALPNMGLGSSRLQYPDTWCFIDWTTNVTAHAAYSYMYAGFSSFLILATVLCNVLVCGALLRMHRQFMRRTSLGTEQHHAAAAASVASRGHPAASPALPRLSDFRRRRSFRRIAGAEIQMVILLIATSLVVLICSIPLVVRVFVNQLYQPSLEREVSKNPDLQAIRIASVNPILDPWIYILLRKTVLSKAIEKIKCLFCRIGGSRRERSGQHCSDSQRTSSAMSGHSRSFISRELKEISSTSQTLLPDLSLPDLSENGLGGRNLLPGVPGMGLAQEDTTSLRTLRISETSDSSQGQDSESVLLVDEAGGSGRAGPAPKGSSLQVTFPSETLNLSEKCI

[3] = molecular target: T3, human EP2 receptor (Homo sapiens, UniProt P43116); assay: Binding ability to human EP2 receptor ([3H]PGE2 displacement); conditions: read-out: pKi EP2 (converted)
T3 construct: expressed in transfected cells
T3 sequence (P43116 whole entry): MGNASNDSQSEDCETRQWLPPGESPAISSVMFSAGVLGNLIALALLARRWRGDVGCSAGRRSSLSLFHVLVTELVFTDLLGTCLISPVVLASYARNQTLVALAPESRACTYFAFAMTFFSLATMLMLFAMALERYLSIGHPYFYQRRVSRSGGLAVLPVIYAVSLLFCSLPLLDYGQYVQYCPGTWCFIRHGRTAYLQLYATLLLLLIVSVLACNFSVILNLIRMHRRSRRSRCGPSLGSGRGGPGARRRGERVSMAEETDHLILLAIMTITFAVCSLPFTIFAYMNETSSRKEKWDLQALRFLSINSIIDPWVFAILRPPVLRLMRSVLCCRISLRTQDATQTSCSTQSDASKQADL
Outline: as §1

[4] = molecular target: T4, human EP1 receptor (Homo sapiens, UniProt P34995); assay: Binding ability to human EP1 receptor ([3H]PGE2 displacement); conditions: membranes from cells stably transfected with human EP receptor cDNA; [3H]PGE2 3.6 nM; Cheng-Prusoff from IC50; read-out: pKi EP1 (converted)
T4 construct: expressed in transfected cells
T4 sequence (P34995 1-402): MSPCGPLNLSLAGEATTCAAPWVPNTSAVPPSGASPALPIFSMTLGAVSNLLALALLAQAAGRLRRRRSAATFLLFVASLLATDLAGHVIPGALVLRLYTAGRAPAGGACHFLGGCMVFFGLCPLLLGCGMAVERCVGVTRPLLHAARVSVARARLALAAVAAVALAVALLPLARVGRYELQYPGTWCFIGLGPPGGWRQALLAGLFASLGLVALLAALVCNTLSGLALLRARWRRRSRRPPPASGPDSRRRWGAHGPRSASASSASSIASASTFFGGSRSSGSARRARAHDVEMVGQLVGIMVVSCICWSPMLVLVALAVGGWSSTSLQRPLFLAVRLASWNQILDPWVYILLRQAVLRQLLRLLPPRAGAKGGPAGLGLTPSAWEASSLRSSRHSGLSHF
Experimental: Membranes were prepared from cells stably transfected with human EP receptor cDNA. In brief, cells were cultured to confluency, scraped from culture flasks, and centrifuged (800 g, 8 minutes, 4° C.). Cells were twice washed in ice cold homogenisation buffer containing 10 mMTris-HCl, 1 mM EDTA. 2Na, 250 mM sucrose, 1 mM PMSF, 0.3 mM indomethacin, pH 7.4, homogenised and re-centrifuged as before. The supernatant was stored on ice and pellets re-homogenised and re-spun. Supernatants were pooled and centrifuged at 40000 g, 10 minutes, 4° C. Resultant membrane pellets were stored at −80° C. until use.
For assay, membranes expressing human EP4, EP3, EP2 or EP1 receptors were incubated in Millipore (MHVBN45) plates containing assay buffer, radiolabelled [^3H]PGE2 and 0.1 to 10 000 nM concentrations of compounds. Incubations were performed at suitable temperatures and for suitable times to allow equilibrium to be reached. Non-specific binding was determined in the presence of 10 uM PGE2. Bound and free radiolabel was separated by vacuum manifold filtration using appropriate wash buffers, and bound radiolabel was determined by scintillation counting. Constituents of each of the buffers are included in table 1 below.
This approach follows that set out in Kenakin, T. P., Pharmacologic analysis of drug receptor interaction. Raven Press, New York, 2nd edition.

| Structure (SMILES) | Ki [1] [µM] | Ki [2] [µM] | Ki [3] [µM] | Ki [4] [µM] |
| --- | --- | --- | --- | --- |
| Cc1ccccc1S(=O)(=O)NC(=O)c1cc(COc2ccc(-c3ccccc3)cc2)c(C)o1 [Compound 60, N-[4-(Biphenyl-4-yloxymethyl)-5-methyl-furan-2-carbonyl]-2-methyl-benzenesulphonamide] | > 10 | < 0.01 | > 10 | > 10 |
| COc1ccc(-c2ccc(OCc3cc(S(=O)(=O)NC(=O)c4ccccc4)oc3C)cc2)cc1 [Compound 49, 4-(4′-Methoxy-biphenyl-4-yloxymethyl)-5-methyl-furan-2-sulfonic acid benzoylamide] | > 10 | < 0.01 | > 10 | > 10 |
